Results on 52 compounds are retold here after PubChem BioAssay AID1996.

Each structure is given as a SMILES string. ≈ marks a conversion by molar mass, not a printed value.

For this series the following is noted: buffer; pH 7.4; 200.0 µM.
As usually defined, the solubility (kinetic) is solubility judged after dilution from a stock solution rather than from solid. Turning to `CCc1ccc(CNc2ccc3c(c2)ncn3CC)cc1`, the kinetic solubility is 37.3 µg/mL (≈ 134 µM). With `O=C(/C=C/c1ccc(F)cc1)NC(=S)Nc1ccccc1O` the figure was 1.8 µg/mL (≈ 5.69 µM); with `Cc1ccc(CSc2[nH]c(=O)ncc2C)cc1`, 11 µg/mL (≈ 44.7 µM). For `CC(=O)N1CCN(c2ccccc2NC(=O)c2ccco2)CC1`, the solubility (kinetic) is more than 47 µg/mL. The figure for `O=C(Cc1c[nH]c2ccccc12)NCc1ccco1` is more than 38.1 µg/mL; for `COC(=O)C(NC(C)=O)(Nc1cc(C)ccn1)C(F)(F)F` (configuration not stated) it is 40.7 µg/mL (≈ 133 µM); for `Cc1ccccc1OCC1Cn2c(nc3c2c(=O)n(C)c(=O)n3C)O1` (configuration not stated) it is more than 51.4 µg/mL. The compound `CC1CCc2cc(F)ccc2N1S(=O)(=O)c1ccc(F)cc1` (configuration not stated) registered a kinetic solubility of 2.4 µg/mL (≈ 7.42 µM). With `COC1=C/C(=C/c2c(O)c(C#N)c3ccccn23)C=CC1=O` the figure was 17.5 µg/mL (≈ 59.9 µM). With `CCC(=O)Nc1cc2c3c(c1)CCN3C(=O)CC2` the figure was 35.3 µg/mL (≈ 144 µM); with `CCN(CC)CCCNc1nc(C)cc(COC)c1C#N`, more than 43.6 µg/mL; with `CCOC(=O)C1CCCN(C(=O)c2cc3ccccc3oc2=O)C1` (configuration not stated), 38.8 µg/mL (≈ 118 µM). The figure for `Cc1nn(CCCC(=O)O)c(C)c1[N+](=O)[O-]` is more than 34.1 µg/mL. For `Cn1ccnc1SCC(=O)Nc1nc2c(F)c(F)c(F)cc2s1`, the kinetic solubility amounted to 0.6 µg/mL (≈ 1.67 µM). The compound `CC1CCCC(NC(=O)CCC(=O)NCc2ccccc2)C1C` (configuration not stated) displayed a solubility (kinetic) of 44.7 µg/mL (≈ 141 µM).

As to `O=C(O)c1cc2c(cc1NC(=O)C1CCCC1)OCCO2`, the solubility (kinetic) is more than 43.7 µg/mL. The figure for `Cc1ccc(NC(=O)COC(=O)CNC(=O)C2CCCCC2)cc1S(=O)(=O)N(C)C` is more than 65.9 µg/mL. The figure for `CN(C)C(=O)C[n+]1ccc(C(N)=O)cc1.[Cl-]` is 35.4 µg/mL; for `COc1ccc(CCNc2cc(C)nc(N)n2)cc1OC` it is more than 43.3 µg/mL; for `COc1ccccc1NS(=O)(=O)c1ccc2oc(SC)nc2c1` it is 1.9 µg/mL (≈ 5.42 µM).

Consider `CC1=C(C(=O)O)N2C(=O)C(NC(=O)c3ccccc3Cl)C2SC1` (configuration not stated), for which the solubility (kinetic) is more than 52.9 µg/mL. The figure for `Cc1ccc(NC(=O)c2cccnc2)c([N+](=O)[O-])c1` is more than 38.6 µg/mL; for `CC1SCC(=O)N(CC(=O)NC2CCCCC2)C1=O` (configuration not stated) it is 37.9 µg/mL (≈ 133 µM); for `CC(Cc1c[nH]c2ccccc12)C(=O)NCc1ccco1` (configuration not stated) it is more than 42.4 µg/mL. Consider `CC(C)(C)N(Cc1ccccc1)C(=O)c1cc2ccccc2o1`, for which the solubility (kinetic) amounted to 1.1 µg/mL (≈ 3.58 µM).

Regarding `COC(=O)C1CN(C(=O)COc2ccccc2C)c2ccccc2O1` (configuration not stated), the kinetic solubility is 48.8 µg/mL (≈ 143 µM). With `CC(=O)Nc1ccc(OC(=O)Cc2ccc(Cl)cc2)cc1` the figure was 1.4 µg/mL (≈ 4.61 µM); with `Cc1ccc(NC(=O)CN2CCc3ccccc3C2)cc1C`, 18.8 µg/mL (≈ 63.9 µM); with `CCC(C)[C@H](NC(=O)NCc1ccc(OC)c(OC)c1)C(=O)O` (some centres not stated), 39.9 µg/mL (≈ 123 µM).

Compound `CC1(C)CCC(=O)C=C1Nc1ccc(F)c(Cl)c1` yielded a kinetic solubility of 38.2 µg/mL (≈ 143 µM). The figure for `COc1ccc(-n2c(=S)[nH]c(=O)c3cccnc32)cc1` is 11 µg/mL (≈ 38.6 µM). The figure for `Cc1ccc(N2C(=O)CC(=O)NC2=O)c(C)c1` is more than 34.8 µg/mL; for `Cc1ccc(Cl)cc1NC(=O)C1CC(=O)N(C(C)C)C1` (configuration not stated) it is 34.7 µg/mL (≈ 118 µM); for `Cc1cc(C)c2nc(NC(=O)c3ccc([N+](=O)[O-])o3)sc2c1` it is less than 0.2 µg/mL. With `CC(C)c1ccccc1NC1=NCCCS1` the figure was 35 µg/mL (≈ 149 µM).

With `Cn1ccnc1SCC(=O)Nc1cccc([N+](=O)[O-])c1`, the solubility (kinetic) is 42.4 µg/mL (≈ 145 µM). Regarding `Cc1cccc(C)c1NC(=O)C[n+]1cc(-c2ccccc2)n2c1CCC2.[Cl-]`, the solubility (kinetic) is more than 57.3 µg/mL. The figure for `CCCC(CCC)C(=O)Nc1cccc(-c2cn3c(n2)SCC3)c1` is 4 µg/mL (≈ 11.6 µM). With `CC(C)c1ccc(NC(=O)COc2ccc(C3SCCS3)cc2)cc1` the figure was 4.1 µg/mL (≈ 11 µM); with `COc1ccc(NC(=S)NCc2ccccc2)c(OC)c1`, 38.8 µg/mL (≈ 128 µM). With `COc1cc(SC)ccc1C(=O)Nc1ccc2c(c1)CCC2`, the solubility (kinetic) stood at 2.2 µg/mL (≈ 7.02 µM). The figure for `O=C1CC(Cc2ccccc2)C(=O)N1c1ccccn1` (configuration not stated) is more than 39.9 µg/mL; for `Clc1ccccc1C1NCc2ccccc2-n2cccc21` (configuration not stated) it is 1.4 µg/mL (≈ 4.75 µM). For `Cc1cc(C)c2sc(NC(=O)CN3C(=O)CCC3=O)nc2c1`, the kinetic solubility turned out to be 46.4 µg/mL (≈ 146 µM).

As to `CN(C)CCCN1C(=O)c2cccc3cccc(c23)C1=O`, the solubility (kinetic) is more than 42.4 µg/mL. The compound `Cc1ccccc1Nc1nnc(SCC(=O)NCC2CCCO2)s1` (configuration not stated) had a solubility (kinetic) of more than 54.7 µg/mL. Turning to `CC(C)c1ccc(NC(=O)CSc2nc3ncccc3[nH]2)cc1`, the kinetic solubility amounted to 3.2 µg/mL (≈ 9.8 µM). The figure for `COc1cc(C(=O)O)ccc1OCc1ccncc1` is more than 38.9 µg/mL; for `CCC(=O)Nc1nc(-c2ccccc2)nc(SC)c1C(C)=O` it is 0.4 µg/mL (≈ 1.27 µM). With `Cc1nc2ccc(NC(=O)c3ccc(Br)o3)cc2s1` the figure was 5.1 µg/mL (≈ 15.1 µM); with `Cc1onc(-c2ccccc2)c1CNS(=O)(=O)c1cccc(Cl)c1`, 36.5 µg/mL (≈ 101 µM); with `CCOC(=O)c1cccc(NC(=O)N2CCOCC2)c1`, more than 41.7 µg/mL.
